Experiment: xn = mol fraction of the nth substance listed
Conditions: 101 kPa, Liquid, Vibrating tube method

CC(O)CN (configuration not stated) [1-amino-2-propanol] + O
mass density [kg/m3]
Conditions | 283.15 K | 288.15 K | 293.15 K | 298.15 K | 303.15 K | 308.15 K | 313.15 K | 318.15 K
x2 = 0.0438 | 970.22 | 966.31 | 962.38 | 958.41 | 954.42 | 950.39 | 946.34 | 942.26
x2 = 0.0801 | 971.77 | 967.87 | 963.94 | 959.99 | 956.01 | 952 | 947.96 | 943.89
x2 = 0.1269 | 974.08 | 970.22 | 966.31 | 962.38 | 958.41 | 954.42 | 950.39 | 946.33
x2 = 0.1584 | 975.52 | 971.66 | 967.77 | 963.84 | 959.89 | 955.9 | 951.88 | 947.83
x2 = 0.2003 | 977.67 | 973.82 | 969.94 | 966.03 | 962.09 | 958.11 | 954.1 | 950.06
x2 = 0.2999 | 983.38 | 979.58 | 975.73 | 971.85 | 967.94 | 963.99 | 960 | 955.98
x2 = 0.3498 | 986.51 | 982.72 | 978.89 | 975.02 | 971.12 | 967.18 | 963.21 | 959.19
x2 = 0.3999 | 989.63 | 985.84 | 982.02 | 978.16 | 974.27 | 970.34 | 966.36 | 962.35
x2 = 0.4499 | 993.04 | 989.26 | 985.45 | 981.59 | 977.71 | 973.78 | 969.81 | 965.8
x2 = 0.4968 | 996.4 | 992.66 | 988.85 | 985 | 981.12 | 977.19 | 973.23 | 969.22
x2 = 0.5122 | 997.62 | 993.86 | 990.05 | 986.21 | 982.33 | 978.4 | 974.44 | –
x2 = 0.5501 | 1000.3 | 996.55 | 992.74 | 988.89 | 985.01 | 981.09 | 977.12 | –
x2 = 0.6001 | 1004.18 | 1000.45 | 996.65 | 992.81 | 988.93 | 985.01 | 981.05 | –
x2 = 0.6501 | 1007.83 | 1004.09 | 1000.3 | 996.47 | 992.61 | 988.7 | 984.75 | –
x2 = 0.7 | 1011.17 | 1007.46 | 1003.71 | 999.92 | 996.09 | 992.22 | 988.3 | –
x2 = 0.7501 | 1013.81 | 1010.2 | 1006.54 | 1002.84 | 999.1 | 995.31 | 991.48 | –
x2 = 0.8 | 1014.93 | 1011.54 | 1008.08 | 1004.58 | 1001.02 | 997.41 | 993.74 | –
x2 = 0.84 | 1014.28 | 1011.22 | 1008.08 | 1004.86 | 1001.58 | 998.22 | 994.79 | –
x2 = 0.88 | 1011.59 | 1009.04 | 1006.38 | 1003.61 | 1000.73 | 997.76 | 994.67 | –
x2 = 0.92 | 1007.29 | 1005.41 | 1003.37 | 1001.17 | 998.83 | 996.33 | 993.7 | –
x2 = 0.96 | 1002.39 | 1001.24 | 999.86 | 998.26 | 996.47 | 994.49 | 992.33 | –

Reference: the NIST ThermoML archive (doi:10.1016/j.tca.2005.10.007)
